In ChEMBL document CHEMBL1128316, “Alkane-6,8-diol: inhibitor of tumor promotion in two-stage carcinogenesis in mouse skin” (1995) one finds Ratio and ID50 data, which are given here for six molecules.

A short description of assay [1]: Inhibitory ratio at 1.0 mg/ear. Type of assay: functional.
The test system of a further assay is Mus musculus. In words: Inhibition of TPA-induced inflammatory ear edema in mice(compound was applied 30 min before TPA […],Ear thickness was determined 6 hr after TPA treatment). Type of assay: functional.

With `CCCCCCCC(O)CC(O)CCCCC` (stereo unspecified), in assay [1], the Ratio was 23.
In the assay with Mus musculus, `CCCCCCCCCCCCCCCCCCCC(O)CC(O)CCCCC` (stereo unspecified) showed an ID50 of 0.5 mg ear-1. Also, in assay [1], the Ratio is given as below 82.
In the same order, the values of `COc1ccc2c(c1)c(CC(=O)O)c(C)n2C(=O)c1ccc(Cl)cc1` [INDOMETHACIN] are 0.3 mg ear-1 and below 96.
Regarding `C[C@]12CCC(=O)C=C1CCC1[C@@H]2[C@@H](O)C[C@@]2(C)[C@H]1CC[C@]2(O)C(=O)CO` (single isomer, unassigned) [HYDROCORTISONE], the ID50 with Mus musculus was found to be 0.03 mg ear-1. For the same molecule, in assay [1], the Ratio is below 99.
The molecule `O=c1c(O)c(-c2ccc(O)c(O)c2)oc2cc(O)cc(O)c12` [QUERCETIN] gave an ID50 in the assay on Mus musculus of 1.6 mg ear-1. In addition, the Ratio in assay [1] is reported as below 40.
Regarding `CCCCCCCCCCCCCCCCCCCCCC(O)CC(O)CCCCC` (stereo unspecified), in the assay with Mus musculus, the ID50 was 0.4 mg ear-1. Moreover, the Ratio in assay [1] is given as below 85.
